Reference: patent publication US8178688B2, “Benzamidine derivatives, process for the preparation thereof and pharmaceutical composition comprising the same” (Dong Wha Pharmaceutical Co., Ltd., priority 2004, dated 2012)
Where two headings read alike, the source gives them in different places.

Test system: osteoclast differentiation
Assay: Inhibitory effects on osteoclast differentiation (co-culture of bone marrow cells with osteoblast, TRAP staining)
Type: cell-based, mice
Settings: Mus musculus, Osteoclast, 168 h, read-out: % inhibitory activity on osteoclastogenesis
Method: The effect of benzamidine derivatives of the present invention on osteoclast proliferation and differentiation process was evaluated via co-culture with osteoblast.
Tibia and Femora were aseptically ectomized from male ddY mice of 6-8 weeks to harvest bone marrow cells by using a syringe (21G, Korea Green Cross).
The bone marrow cells were suspended in 5 mL α-MEM medium (Gibco BRL Co.) containing sodium bicarbonate (2.0 g/L), streptomycin (100 mg/L) and penicillin ([…]). The harvested cells were centrifuged at 600×g for 5 mins to collect the whole quantity. To remove the red blood cells within bone marrow cells, 3 mL of Tris HCl (0.83% NH4Cl, pH7.5) was added and well mixed. After centrifuging above cells, the numbers of bone marrow cells were counted and then, the bone marrow cells were immediately used for co-culture system with osteoblast.
The calvaria were aseptically ectomized from neonate ICR mice of 1˜2 days, washed with PBS solution and incubated with a mixture of enzyme solution (0.2% collagenase and 0.1% dispase) at 37° C. gentle shaker. This procedure was sequentially repeated (10, 10, 10, 20, 20 and 20 mins), and then the calvaria cells having the characteristics of osteoblast mostly released from III-VI digestion groups were collected and washed with the medium (serum-free α-MEM). The washed cells were cultivated in α-MEM medium containing 10% FBS for 2˜3 days. After subculturing, these cells were used for this experiment, and diluted to reach the concentration of 1×10^6 cell/mL for storage at −70° C.
Benzamidine derivatives of the present invention were dissolved in a sterile distilled water or ethanol to make desired concentrations following dilution. The final volume of specimen added to the medium was determined at the ratio of 1:1000.
Bone marrow cells prepared, in the above and osteoblast from calvaria were co-cultured for osteoclast differentiation. Both bone marrow cells (25,000 cells/cm^2) and osteoblast (10,000 cells/cm^2) were plated on a 96 well plate in α-MEM medium containing FBS with specimen, and then cultured with test materials for 7 days. Differentiation factors, such as dexamethasone (10^−7M) and vitamin D3 (10^−8M), were also continuously added to the medium from the first day of cultivation. The medium was changed with fresh media containing a mixture of specimens and differentiation factors every 2˜3 day.
TRAP was used as a marker to measure osteoclast in consideration of its characteristics showing a positive reaction to TRAP staining solution. TRAP staining solution was prepared in a manner that 5 mg of naphtol AS-MS phosphate (sigma N-4875), a substrate and 25 mg of coloring agent (Fast Red Violet LB salt) were dissolved in N,N-dimethylformamide (about 0.5 mL), 0.1N NaHCO3 buffer solution (50 mL) containing 50 mM tartaric acid was added, and the reaction mixture was stored at refrigerator prior to use.
After culturing the cells for 7 days, the medium was removed from the wells, the cells were once washed with PBS solution and fixed to PBS containing 10% formalin for 2˜5 mins. The cells were fixed again in a mixed solution of ethanol and acetone (1/1) for about 1 min, and dried off. The cells were further treated by TRAP staining solution for 15 mins and washed with PBS. The experimental results were measured by counting the number of osteoclasts with 3 or more nuclei showing TRAP-positive reaction under a microscopic examination. Each of tests was confirmed over three times for gaining more reliable data.
As shown in the following table 7, the inhibitory effect of each experimental group on the differentiation of osteoclast versus controls was expressed by inhibitory percentage value.

[1] = 1 μm, co-culture of bone marrow cells and osteoblast, 7 days, TRAP-positive osteoclasts versus controls
[2] = 1 m, co-culture of bone marrow cells and osteoblast, 7 days, TRAP-positive osteoclasts versus controls

`Cc1sc(C(C)C)nc1-c1ccc(OCCCCCOc2ccc(C(=N)NO)cc2)cc1` [Example 1, N-hydroxy-4-(5-[4-(2-isopropyl-5-methyl-1,3-thiazol-4-yl)phenoxy]pentoxy)-benzamidine] gave an inhibition at 1 µM [1] of 87%.

With `Cc1sc(C(C)C)nc1-c1ccc(OCCCCCOc2ccc(C(=N)N)cc2)cc1` [Example 2, 4-(5-[4-(2-isopropyl-5-methyl-1,3-thiazol-4-yl)phenoxy]pentoxy)-benzamidine] the inhibition at 1 µM [1] was 78.4%.

For `CCc1nc(-c2ccc(OCCCCCOc3ccc(C(=N)NO)cc3)cc2)cs1` [Example 4, N-hydroxy-4-(5-[4-(2-ethyl-1,3-thiazol-4-yl)phenoxy]pentoxy)-benzamidine], the inhibition at 1 µM [1] was 81.1%.

`CCc1sc(C)nc1-c1ccc(OCCCCCOc2ccc(C(=N)NO)cc2)cc1` [Example 17, N-hydroxy-4-(5-[4-(5-ethyl-2-methyl-1,3-thiazol-4-yl)phenoxy]pentoxy)-benzamidine] gave an inhibition at 1 µM [1] of 59.1%.

Work on `CCc1sc(C(C)C)nc1-c1ccc(OCCCCCOc2ccc(C(=N)NO)cc2)cc1` [Example 19, N-hydroxy-4-(5-[4-(5-ethyl-2-isopropyl-1,3-thiazol-4-yl)phenoxy]pentoxy)-benzamidine] yielded an inhibition at 1 µM [1] of 42.6%.

`CCc1nc(-c2ccc(OCCCCCOc3ccc(C(=N)NO)cc3)cc2)c(C(C)C)s1` [Example 24, N-hydroxy-4-(5-[4-(2-ethyl-5-isopropyl-1,3-thiazol-4-yl)phenoxy]pentoxy)-benzamidine] gave an inhibition at 1 µM [1] of 57.8%.

`CC(C)c1nc(-c2ccc(OCCCCCOc3ccc(C(=N)NO)cc3)cc2)c(C(C)C)s1` [Example 25, N-hydroxy-4-(5-[4-(2,5-diisopropyl-1,3-thiazol-4-yl)phenoxy]pentoxy)-benzamidine] showed an inhibition at 1 µM [1] of 26.5%.

With `CC(C)c1sc(-c2ccccc2)nc1-c1ccc(OCCCCCOc2ccc(C(=N)NO)cc2)cc1` [Example 26, N-hydroxy-4-(5-[4-(5-isopropyl-2-phenyl-1,3-thiazol-4-yl)phenoxy]pentoxy)-benzamidine] the inhibition at 1 µM [1] was 42.9%.

With `CC(C)c1sc(-c2cccnc2)nc1-c1ccc(OCCCCCOc2ccc(C(=N)NO)cc2)cc1` [Example 27, N-hydroxy-4-(5-[4-(5-isopropyl-2-pyridin-3-yl-1,3-thiazol-4-yl)phenoxy]pentoxy)-benzamidine] the inhibition at 1 µM [1] was 56.5%.

In the case of `CCCCCc1nc(-c2ccc(OCCCCCOc3ccc(C(=N)NO)cc3)cc2)c(C(C)C)s1` [Example 28, N-hydroxy-4-(5-[4-(5-isopropyl-2-pentyl-1,3-thiazol-4-yl)phenoxy]pentoxy)-benzamidine], the inhibition at 1 µM is reported as 29.6%.

`CCCc1sc(C)nc1-c1ccc(OCCCCCOc2ccc(C(=N)NO)cc2)cc1` [Example 29, N-hydroxy-4-(5-[4-(2-methyl-5-propyl-1,3-thiazol-4-yl)phenoxy]pentoxy)-benzamidine] showed an inhibition at 1 µM [1] of 96.3%.

Work on `CCCCc1sc(-c2ccccc2)nc1-c1ccc(OCCCCCOc2ccc(C(=N)NO)cc2)cc1` [Example 33, N-hydroxy-4-(5-[4-(5-butyl-2-phenyl-1,3-thiazol-4-yl)phenoxy]pentoxy)-benzamidine] yielded an inhibition at 1 µM [1] of 49.5%.

`CCCCCc1nc(-c2ccc(OCCCCCOc3ccc(C(=N)NO)cc3)cc2)c(CCCC)s1` [Example 36, N-hydroxy-4-(5-[4-(5-butyl-2-pentyl-1,3-thiazol-4-yl)phenoxy]pentoxy)-benzamidine] showed an inhibition at 1 µM of 46.4%.

Compound `Cc1nc(-c2ccc(OCCCCCOc3ccc(C(=N)NO)cc3)cc2)c(Cc2ccccc2)s1` [Example 38, N-hydroxy-4-(5-[4-(5-benzyl-2-methyl-1,3-thiazol-4-yl)phenoxy]pentoxy)-benzamidine] has an inhibition at 1 µM [1] of 56.8%.

Work on `Cc1nc(-c2ccc(OCCCCCOc3ccc(C(=N)NO)cc3)cc2)c(CCCl)s1` [Example 42, N-hydroxy-4-(5-[4-(5-(2-chloro-ethyl)-2-methyl-1,3-thiazol-4-yl)phenoxy]pentoxy)-benzamidine] yielded an inhibition at 1 µM [1] of 90.9%.

For `Cc1nc(-c2ccc(OCCCCCOc3ccc(C(=N)NO)cc3)cc2)c(CC(C)C)s1` [Example 44, N-hydroxy-4-(5-[4-(5-isobutyl-2-methyl-1,3-thiazol-4-yl)phenoxy]pentoxy)-benzamidine], the inhibition at 1 µM [1] was 96.6%.

With `Cc1nc(-c2ccc(OCCCCCOc3ccc(C(=N)N)cc3)cc2)cs1` [Example 52, 4-(5-[4-(2-methyl-1,3-thiazol-4-yl)phenoxy]pentoxy)-benzamidine] the inhibition at 1 µM [1] was 0%.

`CC(C)c1nc(-c2ccc(OCCCCCOc3ccc(C(=N)N)cc3)cc2)cs1` [Example 53, 4-(5-[4-(2-isopropyl-1,3-thiazol-4-yl)phenoxy]pentoxy)-benzamidine] showed an inhibition at 1 µM [1] of 0%.

`Cc1nc(-c2ccc(OCCCCCOc3ccc(C(=N)N)cc3)cc2)c(C)s1` [Example 54, 4-(5-[4-(2,5-dimethyl-1,3-thiazol-4-yl)phenoxy]pentoxy)-benzamidine] was tested, and the inhibition at 1 µM [1] was 94.2%.

`CCc1sc(C(C)C)nc1-c1ccc(OCCCCCOc2ccc(C(=N)N)cc2)cc1` [Example 55, 4-(5-[4-(5-ethyl-2-isopropyl-1,3-thiazol-4-yl)phenoxy]pentoxy)-benzamidine] showed an inhibition at 1 µM [1] of 67.8%.

Work on `CCc1sc(-c2ccccc2)nc1-c1ccc(OCCCCCOc2ccc(C(=N)N)cc2)cc1` [Example 56, 4-(5-[4-(5-ethyl-2-phenyl-1,3-thiazol-4-yl)phenoxy]pentoxy)-benzamidine] yielded an inhibition at 1 µM [1] of 58.7%.

`CCc1sc(N)nc1-c1ccc(OCCCCCOc2ccc(C(=N)NO)cc2)cc1` [Example 60, N-hydroxy-4-(5-[4-(2-amino-5-ethyl-1,3-thiazol-4-yl)phenoxy]pentoxy)-benzamidine] gave an inhibition at 1 µM [1] of 28.2%.

For `CC(C)c1sc(N)nc1-c1ccc(OCCCCCOc2ccc(C(=N)NO)cc2)cc1` [Example 61, N-hydroxy-4-(5-[4-(2-amino-5-isopropyl-1,3-thiazol-4-yl)phenoxy]pentoxy)-benzamidine], the inhibition at 1 µM [1] was 0%.

`CC(C)c1sc(NC(=N)N)nc1-c1ccc(OCCCCCOc2ccc(C(=N)NO)cc2)cc1` [Example 62, N-hydroxy-4-(5-[4-(2-guanidino-5-isopropyl-1,3-thiazol-4-yl)phenoxy]pentoxy)-benzamidine] showed an inhibition at 1 µM [1] of 19.1%.

`CCCCc1sc(NC(=N)N)nc1-c1ccc(OCCCCCOc2ccc(C(=N)NO)cc2)cc1` [Example 64, N-hydroxy-4-(5-[4-(5-butyl-2-guanidino-1,3-thiazol-4-yl)phenoxy]pentoxy)-benzamidine] gave an inhibition at 1 µM [2] of 43.7%.

`N=C(NO)c1ccc(OCCCCCOc2ccc(-c3nc(N)sc3Cc3ccccc3)cc2)cc1` [Example 65, N-hydroxy-4-(5-[4-(2-amino-5-benzyl-1,3-thiazol-4-yl)phenoxy]pentoxy)-benzamidine] was tested, and the inhibition at 1 µM [2] was 46%.

For `N=C(N)Nc1nc(-c2ccc(OCCCCCOc3ccc(C(=N)NO)cc3)cc2)c(Cc2ccccc2)s1` [Example 66, N-hydroxy-4-(5-[4-(5-benzyl-2-guanidino-1,3-thiazol-4-yl)phenoxy]pentoxy)-benzamidine], the inhibition at 1 µM [2] was 38.5%.

In the case of `CCCN1CCC(c2nc(-c3ccc(OCCCCCOc4ccc(C(=N)NO)cc4)cc3)c(CC3CCCC3)s2)CC1` [Example 68, N-hydroxy-4-(5-[4-(5-cyclopentylmethyl-2-(1-propyl-piperidin-4-yl)-1,3-thiazol-4-yl)phenoxy]pentoxy)-benzamidine], the inhibition at 1 µM is reported as 83%.

In the case of `Cc1sc(NC(=O)C(C)C)nc1-c1ccc(OCCCCCOc2ccc(C(=N)NO)cc2)cc1` [Example 69, N-hydroxy-4-(5-[4-(2-(isobutyryl)amino-5-methyl-1,3-thiazol-4-yl)phenoxy]pentoxy)-benzamidine], the inhibition at 1 µM [2] is reported as 99.6%.

Work on `CC(C)c1sc(CN2CCOCC2)nc1-c1ccc(OCCCCCOc2ccc(C(=N)NO)cc2)cc1` [Example 70, N-hydroxy-4-(5-[4-(5-isopropyl-2-morpholinomethyl-1,3-thiazol-4-yl)phenoxy]pentoxy)-benzamidine] yielded an inhibition at 1 µM [2] of 32.7%.
